{"source": "patent US20220002288A1", "about": "“MONOBACTAM COMPOUNDS AND USE THEREFOR” (priority 2018, published 2022)", "key": {"Acinetobacter baumannii": {"test_system": "Acinetobacter baumannii", "test": "In vitro antibacterial activity, minimum inhibitory concentration (MIC)", "format": "cell-based", "experimental": "(§1) Compounds: The compounds prepared in the above examples and comparative examples. All test compounds were dissolved and diluted with DMSO, and the final concentrations were prepared as 64, 32, 16, 8, 4, 2, 1, 0.5, 0.25, 0.125, 0.0625 μg/mL in the experiment.\n(§2) Bacterial strains: 6 strains of Acinetobacter baumannii (codenames: HDBAB-YK4, HDBAB-YK7, HDBAB-YK12, HDBAB-YK16, HDBAB_OXA_7, ATCC 19606), 2 strains of Pseudomonas aeruginosa (codenames: HDBPA-YK9, HDBPA)-YK15), 1 strain of Escherichia coli (codename: CLB30048), all provided by HD Biosciences (Shanghai) Co., Ltd.\n(§3) Medium: Trypticase soy agar (TSA) (BD BBL 211043), and Cation-adjusted Mueller Hinton broth (CAMHB) (BD BBL212322).\n(§4) The bacteria used for the minimum inhibitory concentration (MIC) test were stored frozen at −80° C., and needed 2 days to recover before use. A small amount of frozen bacteria was scraped with a sterile inoculation loop for streak inoculation on a TSA solid medium petri dish. The dish was placed in an ordinary incubator at 35±2° C. for 20-24 hours. 5-10 Colonies with similar morphologies were picked from the above-mentioned petri dish with a sterile inoculating loop for streak inoculation again on a TSA solid medium petri dish. The dish was then placed in an ordinary incubator at 35±2° C. for 20-24 hours.\n(§5) 1.02×CAMHB liquid medium was taken out from a 4° C. refrigerator and placed at room temperature for preheating. 5-10 Individual bacterial colonies were picked from the solid petri dish of the above Section 2.1 and re-suspended in 500 μL of 0.9% NaCl, and then the OD600 was adjusted to 0.1-0.15 with a spectrophotometer. Then the bacteria were diluted 400 times with 1.02×CAMHB (two-step dilution method: firstly diluting 10 times, then diluting 40 times).\n(§6) The number of inoculated bacteria can be obtained by counting the colonies on the petri dish (see Section 2.4).\n(§7) One compound was arranged in each row of a 96-well test plate: the highest test concentration for each compound was 64 μg/mL, which was diluted by a factor of two.\n(§8) Growth control (GC): 1.02×CAMHB and dimethyl sulfoxide (DMSO) containing bacterial inoculum, no compound.\n(§9) Sterile control (SC): Containing 1.02×CAMHB and DMSO, no compound.\n(§10) All test compounds were dissolved and diluted with DMSO. 50 μL of 3.2 mg/mL of each test compound was transferred to the initial well (A1-H1) of the dilution plate, and then 25 μL of DMSO was transferred to other wells. The test compounds were sequentially diluted by a factor of 2 from column 1 to column 11 (i.e. drawing 25 μL of test compound from column 1 to column 2 and mixing well, and then drawing 25 μL of test compound from column 2 to column 3 and mixing well, and then drawing 25 μL of test compound from column 3 to column 4 and mixing well, and so on, until diluting to column 11).\n(§11) 2 μL of the compound was transferred from the compound plate to the corresponding well of the test plate. Meanwhile, 2 μL of 100% DMSO was transferred to the compound-free wells (the GC and SC wells).\n(§12) 98 μL of the corresponding bacterial inoculum was added to the test plate (except for the SC well).\n(§13) 98 μL of 1.02×CAMHB medium was added to the SC well of the test plate.\n(§14) After the system was added, the test plate was covered with a sterile lid, centrifuged at 800 rpm for 30 seconds, then shaken on a plate shaker at 400 rpm for 1 minute for mixing well, and then placed in an incubator at 35±2° C. for 20 hours.\n(§15) The inoculated bacteria were gradient diluted by 10 folds with the liquid medium, from 10^−1 to 10^−3. 100 μL of the above bacterial dilution was spread evenly on a TSA petri dish, 2 replicates for each dilution. After the medium was absorbed by TSA for 10 minutes, the petri dishes were reversed and incubated in an incubator at 35±2° C. for 24 hours.\n(§16) A compound management system was turned on to check whether the barcode and compound arrangement of each test plate were correct. […]"}, "Escherichia coli": {"test_system": "Escherichia coli", "test": "In vitro antibacterial activity, minimum inhibitory concentration (MIC)", "format": "cell-based", "conditions": "strain CLB30048, read-out: MIC", "experimental": "as §1, §2, §3, §4, §5, §6, §7, §8, §9, §10, §11, §12, §13, §14, §15, §16"}, "Pseudomonas aeruginosa": {"test_system": "Pseudomonas aeruginosa", "test": "In vitro antibacterial activity, minimum inhibitory concentration (MIC)", "format": "cell-based", "experimental": "as §1, §2, §3, §4, §5, §6, §7, §8, §9, §10, §11, §12, §13, §14, §15, §16"}, "[1]": {"test": "Pharmacokinetics of the compounds in mice", "format": "in vivo, BALB/c mice", "from_the_text": "Animals: male BALB/c mice, SPF grade, purchased from Changzhou Cavens Experimental Animal Co., Ltd.; 16-24 g, license number: SCXK (Su)2016-0010; 2 to 3 days of adaptation period were given before the experiment.\nInstruments: API 4500 High Performance Liquid Chromatograph Coupled Triple Quadrupole Mass Spectrometer, and Analyst QS A01.01 Chromatography Workstation were both purchased from AB SCIEX of the United States; Milli-Q ultrapure water device was purchased from Millipore; CF16R XII desktop high-speed refrigerated centrifuge was purchased From Hitachi Company; Qilinbeier Vortex-5 oscillator was purchased from IKA Company of German; electric heating constant-temperature water bath was purchased from Changzhou Guohua Electric Appliance Co., Ltd.; electric pipette was purchased from Thermo Company of American; and microanalysis balance was purchased from Shanghai Mettler Co., Ltd.\n2 mg of the test compound was weighed, added to physiological saline, vortexed for 2 min, and ultrasonicated for 3 min, to prepare a test solution with a concentration of 0.2 mg/mL for intravenous administration.\nA single dose of 2 mg/kg of the test compound was administered to BALB/c mice via the tail vein, the dose volume being 0.1 mL/10 g. At 5 min, 15 min, 30 min, 1 h, 2 h, 4 h after administration, blood samples were collected from the orbital venous plexus into heparinized EP tubes (0.6 mL), which were temporarily placed on crushed ice.\nThe samples were centrifuged at 8000 rpm for 5 min. 15 μL of upper plasma were transferred to a 96-well plate. 150 μL of methanol:acetonitrile (v/v=1:1) (containing 20 ng/mL tolbutamide) was added to 15 μL of plasma, shaken for 3 min, and centrifuged at 4500 rpm for 5 min. 100 μL of supernatant was taken to a 2 mL deep well plate. 100 μL of diluent (pure water) was added. The samples were shaken for 3 min, and centrifuged at 4500 rpm for 5 min. 180 μL of the supernatant was transferred to the sample plate. The content of the compound in the supernatant sample was analyzed by LC-MS/MS, and various pharmacokinetic parameters were calculated with WinNonlin software."}, "[2]": {"test_system": "Acinetobacter baumannii, Pseudomonas aeruginosa, and Escherichia coli", "test": "In vitro antibacterial activity, summary statements over all strains of Experimental Example 1", "format": "cell-based", "conditions": "method of Experimental Example 1", "experimental": "as §1, §2\nThe minimum inhibitory concentration (MIC) of each compound was recorded according to the guidelines of the Clinical and Laboratory Standards Institute."}, "[3]": {"conditions": "mouse, male BALB/c mice, single intravenous dose 2 mg/kg, plasma"}}, "note": "Where a name gives a salt, the structure may show the parent alone."}
{"smiles": "CC1(C)[C@H](NC(=O)/C(=N\\O[C@@H](COc2ccc(C(=O)Nc3cn(CCCN)[n+](CC4CNC4)c3)cc2)C(=O)O)c2csc(N)n2)C(=O)N1OS(=O)(=O)[O-]", "note": "[Example 1, (S)-3-((Z)-2-(((S)-2-(4-((1-(3-aminopropyl)-2-(azetidin-3-ylmethyl)-1H-pyrazol-2-ium-4-yl)carbamoyl)phenoxy)-1-carboxyethoxy)imino)-2-(2-aminothiazol-4-yl)acetylamino)-2,2-dimethyl-4-oxoazetidin-1-yl Sulfate]", "values": [{"measurement": "MIC", "setting": "Acinetobacter baumannii; ATCC19606, strain ATCC 19606", "value": 2, "unit": "µg/mL"}, {"measurement": "MIC", "setting": "Acinetobacter baumannii; strain HDBAB-YK4", "value": 2, "unit": "µg/mL"}, {"measurement": "MIC", "setting": "Acinetobacter baumannii; strain HDBAB-YK7", "value": 0.25, "unit": "µg/mL"}, {"measurement": "MIC", "setting": "Acinetobacter baumannii; strain HDBAB-YK12", "value": 2, "unit": "µg/mL"}, {"measurement": "MIC", "setting": "Acinetobacter baumannii; strain HDBAB-YK16", "value": 8, "unit": "µg/mL"}, {"measurement": "MIC", "setting": "Acinetobacter baumannii; strain HDBAB_OXA_7", "value": 4, "unit": "µg/mL"}, {"measurement": "MIC", "setting": "Escherichia coli", "value": 2, "unit": "µg/mL"}, {"measurement": "MIC", "setting": "Pseudomonas aeruginosa; strain HDBPA-YK9", "value": 2, "unit": "µg/mL"}, {"measurement": "MIC", "setting": "Pseudomonas aeruginosa; strain HDBPA-YK15", "value": 32, "unit": "µg/mL"}, {"measurement": "blood concentration (CO)", "setting": "[1]; intravenous dose of 2 mg/kg", "value": 11548, "unit": "ng/mL"}, {"measurement": "Vd", "setting": "[1]; male, BALB/c, mouse, plasma, iv, 2 mg/kg, male BALB/c mice, single intravenous dose 2 mg/kg, plasma, read-out: VSS", "value": 0.25, "unit": "L/kg"}, {"measurement": "AUC(0-inf)", "setting": "[1]; [3]", "value": 3180, "unit": "ng·h/mL"}, {"measurement": "AUC(0-t)", "setting": "[1]; [3]", "value": 3140, "unit": "ng·h/mL"}, {"measurement": "C0", "setting": "[1]; [3]", "value": 11500, "unit": "ng/mL"}, {"measurement": "clearance", "setting": "[1]; [3]", "value": 10.8, "unit": "mL/min/kg"}, {"measurement": "half-life", "setting": "[1]; [3]", "value": 20.4, "unit": "min"}, {"measurement": "in vitro antibacterial activity (in words)", "setting": "[2]", "value": "excellent antibacterial activity"}]}
